{"source": "paper PMC6443933", "about": "“Antagonizing Retinoic Acid-Related-Orphan Receptor Gamma Activity Blocks the T Helper 17/Interleukin-17 Pathway Leading to Attenuated Pro-inflammatory Human Keratinocyte and Skin Responses” (Frontiers in Immunology, 2019)", "key": {"[1]": {"tested_on": "skin-resident immunocompetent cells in human skin biopsies", "assay": "Ex vivo full-thickness human skin biopsy culture with Th17-inducing cocktail", "experimental": "Full-thickness skin punch biopsies (8 mm diameter) were taken from surgical discards. Briefly, subcutaneous fat was removed from the skin ranging in size between 150 and 200 cm^2 and 8 mm punches were obtained. Samples were incubated in IMDM medium supplemented with Glutamax, 10% FCS, 1% non-essential amino acids, 1 mM Sodium pyruvate, Penicillin/Streptomycin and Amphotericin B (2.5 μg/ml). Incubations were done in the presence of various concentrations of Cpd A or DMSO vehicle control together with a Th17-inducing cocktail consisting of IL-6 (20 ng/ml), TGF-β1 (5 ng/ml), IL-1β (10 ng/ml), IL-23 (10 ng/ml), anti-IL-4/IFNγ (5 μg/ml), and anti-CD3/CD28 antibodies (1 μg/ml). On day 4, supernatants were harvested and analyzed for IL-17 cytokine expression, whereas skin punch biopsies were snap frozen, stored at −80°C and further processed for qRT-PCR analysis.\nTotal RNA from human Th17 cells (6 × 10^5 cells), RORγt-RORE HUT78 cells (4 × 10^5 cells) and HaCaT cells (6 × 10^4 cells) was extracted using RNeasy kit including a DNAse I digestion step according to the manufacturer‘s protocol (Qiagen). […] Quantitative RT-PCR analysis was performed using a TaqManViiA7 (Applied Biosystems). […]"}, "[2]": {"tested_on": "HUT78 T-cells stably expressing full-length eGFP-RORγt", "assay": "IL-17A / IL-2 production by RORγt transduced HUT78 T-cell line", "type": "cell-based, human"}, "[3]": {"tested_on": "STAT3 phosphorylation in Ba/F3 cells stably expressing the human IL-21 receptor", "assay": "IL-21-induced phospho-STAT3 by flow cytometry", "type": "cell-based", "settings": "10 μM, 1 h pre-incubation, vs DMSO", "experimental": "To assess whether Cpd A affected STAT3 activity we induced STAT3 phosphorylation in Ba/F3 cells stably expressing the human IL-21 receptor (kindly provided by Dr. Max Warncke, Novartis). Cells were pre-incubated for 1 h with 10 μM of Cpd A or with 1 μM of the pan-JAK inhibitor CP690550. To induce STAT3 activity, the cells were stimulated for 1.5 h with recombinant human IL-21 (3 nM), followed by two washing steps using buffer containing PBS/0.5% BSA. The cells were fixed with 2% paraformaldehyde for 15 min at room temperature, washed and resuspended in ice-cold 90% methanol solution and stored overnight at −20°C. The samples were washed and stained for 1 h with an Alexa 647-labeled anti-phospho (pY705)-STAT3 antibody (BD biosciences). After two washes the cells were analyzed using a LSR Fortessa (BD Bioscience) and analyzed using FlowJo software (Tree Star)."}, "naive human CD4+ T-cells": {"tested_on": "naive human CD4+ T-cells", "assay": "Th17 polarization of naive CD4+ T-cells, IL-17A ELISA", "type": "cell-based", "settings": "T-cell, 168 h, Th17 differentiation 7 days, read-out: IC50, IL-17A secretion", "experimental": "Total, naive and memory CD4^+ T cells were isolated from Peripheral blood mononuclear cells (PBMCs) from healthy volunteers by density gradient centrifugation using Ficoll Paque (GE). Total, naive or memory CD4^+ T-cells were prepared by immunomagnetic separation using the respective CD4^+ T-cell enrichment kits resulting in untouched highly purified subsets (EasySep™, Stem Cell). Purity was assessed by flow cytometry and was between 95 and 98% for the total CD4^+ T-cells. The purity of naive (CD45RA^+CD45RO^−) and memory (CD45RA^−CD45RO^+) CD4^+T-cells ranged between 95 and 98%, respectively. For T-cell stimulation experiments, cells were treated as previously published ([44]). Briefly, T-cells were stimulated with plate-bound monoclonal antibodies against CD3 (1 μg/ml, clone OKT-3, BioXcell) and CD28 (1 μg/ml, clone CD28.2, BioLegend). For Th17 polarization assays, IL-6 (20 ng/ml), TGF-β1 (5 ng/ml), IL-1β (10 ng/ml), and IL-23 (10 ng/ml) were added. For Th1 polarization assays, IL-12 (10 ng/ml) and anti-IL-4 antibody (5 μg/ml), for Th2 polarizations, IL-4 (10 ng/ml) and anti-IFN-γ antibody (5 μg/ml) were added. For Th0 polarization assays, cells were only stimulated with CD3 and CD28 antibodies. […] Cytokine concentrations were quantified by ELISA according to the manufacturer's instructions (eBioscience or BioLegend)."}, "[4]": {"tested_on": "human Th17 cells (total CD4+ T-cells)", "assay": "RORγt target gene expression in Th17 cells by qRT-PCR", "type": "cell-based", "settings": "Th17 polarization 72 h, concentration-dependent", "experimental": "Total, naive and memory CD4^+ T cells were isolated from Peripheral blood mononuclear cells (PBMCs) from healthy volunteers by density gradient centrifugation using Ficoll Paque (GE). Total, naive or memory CD4^+ T-cells were prepared by immunomagnetic separation using the respective CD4^+ T-cell enrichment kits resulting in untouched highly purified subsets (EasySep™, Stem Cell). Purity was assessed by flow cytometry and was between 95 and 98% for the total CD4^+ T-cells. The purity of naive (CD45RA^+CD45RO^−) and memory (CD45RA^−CD45RO^+) CD4^+T-cells ranged between 95 and 98%, respectively. For T-cell stimulation experiments, cells were treated as previously published ([44]). Briefly, T-cells were stimulated with plate-bound monoclonal antibodies against CD3 (1 μg/ml, clone OKT-3, BioXcell) and CD28 (1 μg/ml, clone CD28.2, BioLegend). For Th17 polarization assays, IL-6 (20 ng/ml), TGF-β1 (5 ng/ml), IL-1β (10 ng/ml), and IL-23 (10 ng/ml) were added. For Th1 polarization assays, IL-12 (10 ng/ml) and anti-IL-4 antibody (5 μg/ml), for Th2 polarizations, IL-4 (10 ng/ml) and anti-IFN-γ antibody (5 μg/ml) were added. For Th0 polarization assays, cells were only stimulated with CD3 and CD28 antibodies. Supernatants were collected after 3 or 7 days of incubation for total or naive/memory CD4^+ T-cell polarizations, respectively. Cytokine concentrations were quantified by ELISA according to the manufacturer's instructions (eBioscience or BioLegend).\nTotal RNA from human Th17 cells (6 × 10^5 cells), RORγt-RORE HUT78 cells (4 × 10^5 cells) and HaCaT cells (6 × 10^4 cells) was extracted using RNeasy kit including a DNAse I digestion step according to the manufacturer‘s protocol (Qiagen). Frozen skin biopsies (8 mm punches) were resuspended in RLT buffer (Qiagen) containing 1% β-mercaptoethanol and homogenized using a Precellys-Cryolys device (Bertin Instruments) according to the manufacturer's instructions. cDNAs were prepared with the High Capacity cDNA Reverse Transcription Kit (Applied Biosystems). Quantitative RT-PCR analysis was performed using a TaqManViiA7 (Applied Biosystems). All runs were accompanied by the internal control gene human β-glucoronidase (Gus) (431088E). The samples were run in triplicate or in hexaplicate and normalized to Gus using the ΔΔCt method to provide arbitrary units representing relative expression levels. The following Taqman probes were used for RT-PCR (Thermo Scientific): RORC (Hs01076112_m1), IL17A (Hs00936345_m1), IL22 (Hs01574154_m1), IL26 (Hs00218189_m1), IL23R (Hs00332759_m1), CCR6 (Hs00218189_m1), NFKBIZ (Hs00355476_m), DEFB4A (Hs00823638_m1), IL36G (Hs00219742_m1), and CCL20 (Hs00355476_m1)."}, "RORγt expression": {"tested_on": "RORγt expression", "assay": "RORγt expression in cultures (data not shown)", "type": "cell-based", "settings": "preliminary evidence"}}, "data": [{"compound": "Cc1ccc(C(=O)Nc2cn3ccnc3c(CN3CCN(c4noc(C(C)(C)C)n4)[C@@H](C)C3)c2C)cn1", "note": "[Cpd A, (S)-N-(8-((4-(5-(tert-butyl)-1,2,4-oxadiazol-3-yl)-3-methylpiperazin-1-yl)methyl)-7-methylimidazo[1,2-a]pyridin-6-yl)-6-methylnicotinamide]", "values": [{"measurement": "h-BD2 (DEFB4A) gene expression in skin punches", "setting": "[1]", "result": "significantly down-regulated"}, {"measurement": "IL-17A secretion by skin-resident immunocompetent cells", "setting": "[1]; ex vivo skin punches, various concentrations", "result": "concentration-dependent inhibition"}, {"measurement": "IC50", "setting": "[2]; Homo sapiens, PMA plus anti-CD3, 48 h, ELISA", "result": 27, "unit": "nM"}, {"measurement": "IL-2 cytokine production", "setting": "[2]; PMA plus anti-CD3, 48 h, ELISA", "result": "not affected"}, {"measurement": "attenuation of IL-17A production", "setting": "[2]; concentration-dependent", "result": "complete attenuation"}, {"measurement": "IL-21-induced STAT3 phosphorylation (pY705)", "setting": "[3]", "result": "did not affect"}, {"measurement": "IC50", "setting": "naive human CD4+ T-cells", "result": 15, "unit": "nM"}, {"measurement": "CCR6 gene expression", "setting": "[4]", "result": "significantly attenuated"}, {"measurement": "IL17A gene expression", "setting": "[4]", "result": "significantly attenuated"}, {"measurement": "IL17F gene expression", "setting": "[4]", "result": "significantly attenuated"}, {"measurement": "IL22 gene expression", "setting": "[4]", "result": "significantly attenuated"}, {"measurement": "IL23R gene expression", "setting": "[4]", "result": "significantly attenuated"}, {"measurement": "IL26 gene expression", "setting": "[4]", "result": "significantly attenuated"}, {"measurement": "RORγt expression in cultures", "setting": "RORγt expression", "result": "did not modify"}]}]}
